According to publication PMC6100250, “Efficient Intracellular Delivery of Cell-Impermeable Cargo Molecules by Peptides Containing Tryptophan and Histidine” (Molecules : A Journal of Synthetic Chemistry and Natural …, 2018):
Non-standard residues stand in square brackets, D forms with d. Residues, ends and D or L forms follow the SMILES beside them. *: point of attachment. 5FAM = O=C1OC2(c3ccc(O)cc3Oc3cc(O)ccc32)c2ccc(C(=O)*)cc21; pY = N[C@@H](Cc1ccc(OP(=O)(O)O)cc1)C(=O)O

Tests used:
SK-OV-3 cells [1] = experiment: Live cell fluorescence microscopy of F’-GpYEEI uptake; type: cell-based, human; details: F’-GpYEEI 5 µM alone, no carrier peptide, 3 h, FITC channel
Method: Fluorescence microscopy was used to confirm the intracellular uptake of F’-GpYEEI in the presence of cyclic [WH]5. The fluorescence intensity of F’-GpYEEI (5 µM) was visualized in a physical mixture with cyclic [WH]5 (50 µM) compared to that of F’-GpYEEI alone in SK-OV-3 cells. […] F’-GpYEEI alone was used as a control in this assay. Live cell imaging was carried using glass-bottom plates.
SK-OV-3 cells were grown with antibiotic-free DMEM 24 h prior to the experiment in a glass bottom petri-dish (60 mm × 15 mm) of 5000 cells per mL of media. The F’-GpYEEI was incubated with cyclic [WH]5 for 30 min at room temperature. Then, the cells were treated with a mixture of F’-GpYEEI (5 μM) and cyclic [WH]5 (50 μM) in Opti-MEM for 3 h at 37 °C. After 3 h, the medium containing the treatments was removed, and PBS was added to cells. The cells were washed with PBS for two times. Images were acquired with BZ-X710 fluorescence microscope (Keyence, Osaka, Japan) at 100× magnification for brightfield and FITC channels. Images were merged and processed using Image J software to visualize the fluorescence uptake by cells.

CCRF-CEM cells = experiment: MTS cell viability (cytotoxicity) assay; details: peptide 10, 50 and 100 µM (up to 100 µM), 3 h incubation, 37 °C, read at 490 nm, triplicate
Method: (§1) To determine concentration of peptide to be used in in vitro assays, the cytotoxicity of peptides was evaluated in two cell lines, human ovarian (SK-OV-3) and leukemia (CCRF-CEM) cancer cells.
(§2) Human leukemia CCRF-CEM (ATCC # CCL-119) and ovarian carcinoma SK-OV-3 (ATCC # HTB-77) cell lines were purchased from the American Type Culture Collection. Cells were grown on 75 cm^2 cell culture flasks. The Roswell Park Memorial Institute (RPMI)-1640 medium was used for leukemia cells and McCoy’s 5A medium was used for SK-OV-3 cells. The medium was supplemented with 10% fetal bovine serum (FBS), 1% penicillin−streptomycin solution (10,000 units of penicillin, and 10 mg of streptomycin in 0.9% NaCl) in a humidified atmosphere of 5% CO2 at 37 °C. All bioassays were performed in triplicate.
(§3) The cytotoxicity assay was performed via an MTS proliferation assay in CCRF-CEM and SK-OV-3 cells. CCRF-CEM (40,000 cells) and SK-OV-3 (5000 cells) were incubated with 100 µL of complete media. The cells were seeded overnight in 96 well plates. […] The fluorescence intensity of the formazan product was measured at 490 nm using a Spectra Max M2 microplate spectrophotometer. The percentage of cell survival was calculated as [(OD value of cells treated with the test mixture of compounds) − (OD value of culture medium)]/[(OD value of control cells) − (OD value of culture medium)] × 100%.

SK-OV-3 cells [2] = experiment: MTS cell viability (cytotoxicity) assay; details: peptide 10, 50 and 100 µM (up to 100 µM), 3 h incubation, 37 °C, read at 490 nm, triplicate
Method: as §1, §2, §3

SMILES | cellular uptake of F’-GpYEEI alone (fluorescence microscopy) (SK-OV-3 cells [1]) | cytotoxicity (cell survival, MTS) (CCRF-CEM cells) | cytotoxicity (cell survival, MTS) (SK-OV-3 cells [2])
CC[C@H](C)[C@H](NC(=O)[C@H](CCC(=O)O)NC(=O)[C@H](CCC(=O)O)NC(=O)[C@H](Cc1ccc(OP(=O)(O)O)cc1)NC(=O)CNC(=O)c1ccc2c(c1)C(=O)OC21c2ccc(O)cc2Oc2cc(O)ccc21)C(=O)O [F’-GpYEEI] (5FAM-G[pY]EEI-OH) | No green fluorescence was observed | – | –
O=C1N[C@@H](Cc2c[nH]c3ccccc23)C(=O)N[C@@H](Cc2c[nH]cn2)C(=O)N[C@@H](Cc2c[nH]c3ccccc23)C(=O)N[C@@H](Cc2c[nH]cn2)C(=O)N[C@@H](Cc2c[nH]c3ccccc23)C(=O)N[C@@H](Cc2c[nH]cn2)C(=O)N[C@@H](Cc2c[nH]c3ccccc23)C(=O)N[C@@H](Cc2c[nH]cn2)C(=O)N[C@@H](Cc2c[nH]c3ccccc23)C(=O)N[C@H]1Cc1c[nH]cn1 [cyclic [WH]5] (cyclo(HWHWHWHWHW)) | – | did not show significant toxicity | did not show significant toxicity
